Measurements from patent US7262336B2 (priority 2000, dated 2007).

Legend:
Type in all cases: in vivo, rat
[1] = system: Gαq mutant transgenic rats; assay: DOI induced headshakes and lethality in Gq transgenic rats; settings: for number of headshakes: 0.1 mg/kg
Method: (§1) In general, 10 male and 10 female heterozygotes of each line were compared with a similar number of wild-type littermate controls. Testing began at 7-8 weeks of age. Subjects were individually housed in hanging metal mesh cages with ad libitum access to food and water under a 12 h light/dark cycle. For Lines 76, 67, and 11 the subjects were maintained on powdered rodent chow for the duration of the study. Subjects from Lines 58 and 75 were adapted to powdered chow for the feeding studies and then maintained on that chow for the remainder of the study. Subjects were evaluated in a series of tests outlined below over a period of approximately 12 weeks.
Wild type and transgenic rats were injected ip with either vehicle or DOI (0.001, 0.01, 0.1, 1.0 mg/kg) and were then housed singly in clear Plexiglas chambers (10″×18″×8″) for observational studies. A trained observer counted the number of headshakes for each rat during 2 observation periods (0-30 min; 45-75 min).
Assessing the effect of the RGS insensitive Gαq mutant transgene on receptors coupled via Gαq to the IP3 pathway in transgenic rats was an interest. 5-HT2A agonists produce large increases in headshakes in rats via this pathway. DOI (−1[2,5-dimethoxy-4-iodophenyl]-2-aminopropane) is a 5-HT2A receptor agonist, which increases headshakes in rats, and it has been used to investigate this pathway (Wettstein et al., 1999). DOI administration was used herein to determine if 5-HT2A agonist activity was modified in transgenic rats; results are shown in FIG. 27.

[2] = system: normal Sprague-Dawley rats; assay: DOI lethality in normal rats (separate experiments); settings: doses as high as 30 mg/kg
Method: Higher doses of DOI (3-10 mg/kg) were required to produce similar effects in line 11 (data not shown).

[3] = system: Gαq mutant transgenic rats; assay: Stimulant-induced locomotor activity (d-amphetamine, phencyclidine) in Gq transgenic rats
Method: as §1
To complement the observations of motor activity obtained using the open field test, heterozygotes and wildtype littermate controls were evaluated for spontaneous locomotor activity using an automated data collection system and a more extended test period. Data in this test was collected in multiple time bins over the test period allowing for some assessment of both the exploratory activity level in a novel environment as well as the rate of habituation to that environment. Having habituated the subjects, a stimulant was administered to determine the responsiveness of these subjects to the stimulant using locomotor activity as a measure. In this study we used an indirect-acting dopamine agonist, d-amphetamine, and a NMDA excitatory amino acid antagonist, phencyclidine, to induce locomotion. The ability of d-amphetamine to increase motor activity is dependent on dopaminergic neurotransmission in the striatum, in particular the nucleus accumbens, but can be influenced by other neurotransmitters. The ability of phencyclidine to induce locomotor activity is dependent on changes in both dopamine and glutatmate neurotransmission (Adams and Moghaddam, J. Neurosci. 1998, 18:5545-54). The differences in locomotor activity observed under spontaneous and stimulant-induced conditions in heterozygotes vs. wildtype littermate controls are summarized in FIGS. 15 and 16.
Subjects were placed in activity monitors (Model RXYZCM16, Omnitech, Columbus, Ohio) equipped with infrared beams to detect movements on both the horizontal (16×16 in field) and vertical axes. The testing room was equipped with white noise. Following a 60 min habituation period during which activity was monitored for differences in spontaneous locomotor activity, each subject was treated with a dose of 1 mg/kg d-amphetamine ip and returned to the activity monitor. Activity induced by d-amphetamine was monitored for 2 h. On a separate occasion, these same subjects were placed in the activity monitors and allowed to habituate for 60 min. Following this re-habituation, each subject was treated with 10 mg/kg phencyclidine ip and monitored for activity for an additional 4 h. The doses of d-amphetamine and phencyclidine were selected based on other studies as doses that induce a hyperactive state in normal rats (see Adams and Moghaddam, supra; Krebs-Thomson et al., Fur. J. Pharmacol. 1998, 343:135-43). Data were analyzed using LSD following a 2-way ANOVA (transgene×time) with one repeated measure (time). Outcomes were determined significant at p<0.05.

[4] = system: Gαq mutant transgenic rats; assay: Pilocarpine-induced cholinergic signs and convulsions in Gq transgenic rats
Method: Muscarinic cholinergic agonists produce a series of cholinergic signs (chromodacryrhea, salivation, diarrhea, hypoactivity, tremors, foaming, convulsions and death) at high doses via a Gαq modulated pathway. Studies were conducted with the muscarinic agonist pilocarpine to determine if muscarinic agonist activity was modified in the transgenic rats (FIG. 28). Studies were conducted with the muscarinic agonist pilocarpine to determine if muscarinic agonist activity was modified by acute lithium (FIG. 29 or chronic lithium (FIG. 30). Both acute and chronic lithium potentiated the cholinergic signs produced by pilocarpine.

[5] = system: Gαq mutant transgenic rats; assay: Food intake after RO 60-0175 in Gq transgenic rats vs wild-type littermates
Method: as §1
Wild-type and transgenic rats were maintained on powdered chow in their home cages. Rats were fasted for 24 h prior to evaluation of food intake. Food intake was measured at 2, 4, and 24 h timepoints following ip injection of vehicle, 1, or 1.7 mg/kg RO 60-0175. Experimental sessions were generally conducted on Tues and Fri with 24 h fasts initiating on Mon and Thurs. […] 5-HT2C agonists decrease food intake via a Gαq modulated pathway. Studies using the selective 5-HT2C agonist RO 60-0175 were conducted to determine if 5-HT2C agonist activity was modified in transgenic rats.
To account for the baseline differences in food intake between wild-type and transgenic rats, the effects of RO 60-0175 were calculated as a percentage of the vehicle food intake. The effects of 1.7 mg/kg RO 60-0175 were greater in both males and females for transgenic heterozygotes for lines 75 and 67 (FIG. 7). The effects of 1.0 mg/kg RO 60-0175 were greater in males of line 67 as well (data not shown). […] There was no change in the effects of RO 60-0175 in rats from lines 58, 76, or 11.

`COc1cc(CC(C)N)c(OC)cc1I` (stereo not shown) [DOI, −1[2,5-dimethoxy-4-iodophenyl]-2-aminopropane] was tested, and the number of headshakes ([1]; line 67 male transgenic heterozygote rats) was “trend toward increased headshakes”, the number of headshakes ([1]; line 75 male transgenic heterozygote rats) was “increased” and the lethality ([1]; 1 mg/kg, transgenic rats from lines 58, 75, 67 and 76) was “found dead within 24 hours”. The “5-HT2A Agonist (DOI) Induction of Head Shakes” value ([1]; Gαq mutant Transgenics, cell wraps: 4 of 5 lines ↓ headshakes) was 4 of 5 lines ↓, the “5-HT2A Agonist (DOI) Flattened Body Posture, Convulsions, Death” value ([1]; Gαq mutant Transgenics, cell wraps: FBP, conv and death at 1.0 mg/kg, higher doses required for line 11) was 4 of 5 lines show FBP, and the “doses required to produce similar effects (lethality)” value ([1]; transgenic line 11) was 3 to 10 mg/kg. For the same compound, the lethality [2] was “did not result in lethality”.

For `c1ccc(C2(N3CCCCC3)CCCCC2)cc1` [PCP, phencyclidine], the “locomotor activity induced by phencyclidine, heterozygotes vs wildtype” value ([3]; 10 mg/kg ip, Line 58 males, delayed in the onset) was “increase in locomotor activity”, the “phencyclidine locomotor activity, heterozygotes vs wildtype” value ([3]; 10 mg/kg ip, Line 67 males) was “reduced” and the “locomotor activity induced by phencyclidine, heterozygotes vs wildtype” value ([3]; 10 mg/kg ip, Line 76 females, Line 11 males and females, to a lesser degree Line 67 females) was “delayed hyperactivity”. The “phencyclidine-induced activity, heterozygotes vs wildtype” value ([3]; 10 mg/kg ip, Line 76 male (p=0.07)) was “slight trend toward a similar reduction” and the “Noncompetitive NMDA antagonist (PCP) Locomotor Activity” value ([3]; Gαq mutant Transgenics, cell wraps: 4 of 5 lines ↑ hyperactivity (delayed)) was 4 of 5 lines ↑.

For `CC[C@@H]1C(=O)OC[C@@H]1Cc1cncn1C` [Pilocarpine, pilocarpine], the “Muscarinic Agonist (Pilocarpine) Convulsions, Death” value ([4]; Gαq mutant Transgenics, cell wraps: 3 of 3 lines tested conv and death (10–30 mg/kg)) was 3 of 3 lines tested conv, the “Muscarinic Agonist (Pilocarpine) Induction of cholinergic signs” value ([4]; Gαq mutant Transgenics, cell wraps: 3 of 3 lines tested ↑ cholinergic signs) was 3 of 3 lines tested ↑ and the “sensitivity of the transgenic rats to the muscarinic agonist” value ([4]; transgenic rats) was “increased sensitivity”.

For `C[C@H](N)Cn1ccc2cc(F)c(Cl)cc21` [RO 60-0175], the “effect on food intake as percentage of vehicle food intake, transgenic vs wild-type” value ([5]; 1.0 mg/kg ip, line 75 females) was “greater in wildtype than in transgenic rats”, the “effect on food intake as percentage of vehicle food intake, transgenic heterozygotes vs wild-type” value ([5]; 1.0 mg/kg ip, males of line 67) was “greater” and the “effect on food intake as percentage of vehicle food intake, transgenic heterozygotes vs wild-type” value ([5]; 1.7 mg/kg ip, males and females, lines 75 and 67) was “greater”. The “5-HT2C Agonist (RO60-0175) Inhibition of Food Intake” value ([5]; Gαq mutant Transgenics, cell wraps: 2 of 5 lines ↑sensitivity to RO 60-0175) was 2 of 5 lines and the “change in effect on food intake, transgenic vs wild-type” value ([5]; lines 58, 76, or 11) was “no change”.

For `C[C@H](N)Cc1ccccc1` [d-amph, d-amphetamine], the “amphetamine-induced locomotor activity, heterozygotes vs wildtype” value ([3]; 1 mg/kg ip, males of Lines 58, 75, 67, 11 and females of Line 67, 76, 11, but not males of Line 76) was “reduced amphetamine-induced locomotor activity” and the “Indirect DA agonist (d-amph) Locomotor Activity” value ([3]; Gαq mutant Transgenics, cell wraps: All lines ↓ hyperactivity) was “All lines ↓”.
